Laboratory results: patent publication US11154057B2, “Use of nootkatone to treat mosquito infestations” (EVOLVA SA, priority 2016, dated 2021)
Read-outs that look alike come from different tables or passages of the source.

Experiments:
Format in all cases: in vivo
[1] = test system: 3rd and 4th instar larvae; assay: Duration of protection from larvae, Method 2: individual pre-treated beakers used once (Example No. 4); conditions: for larvae mortality rates: through one week of treatment
Method: Method 2: Clean, glass 600 mL beakers were set up as test containers (such that the surface area of water to be treated was 54 cm^2), and were treated with 1 mL of 1% or 3% nootkatone in ethanol (v/v), or 1 mL of ethanol alone, to achieve a final concentration of 0.01% or 0.03% nootkatone (v/v), respectively. Beakers were lightly covered with Kimwipes to prevent contamination, and to reduce evaporation. Beakers treated with 1 mL of 100% ethanol were used as controls. Four cohorts of 25 3rd and 4th instar larvae were added to individual beakers per day, 3-14 days after treatment with nootkatone, and mortality of larvae was recorded 24 and 48 hours after addition of larvae to beakers.
For the experimental data shown in FIGS. 5-7, the method used included addition and removal of water, and potentially, removal of nootkatone, on each succeeding day. In a new experiment, individual beakers were set up in advance, so that all beakers were used one and only one time to test the longevity of nootkatone, with the only possible loss due to evaporation.
In a separate experiment using the same setup, nootkatone-treated beakers were held for two weeks prior to addition of larvae. Due to the extended time delay, more than 50% of the original liquid volume had evaporated. To avoid having a potentially higher concentration of nootkatone than the desired 0.03%, sterile water was added to bring the total volume back to 100 mL before larval cohorts were added.

Aedes aegypti larvae [2] = assay: Nootkatone crystals dropped onto the water surface as larvicide (Example No. 9, Treatment 3); conditions: for Alive / Dead / KD: 30 mg NK crystals in 100 mL water
Method: (§1) In this example, nootkatone-containing compositions were evaluated for their ability to act as a larvicide by coating a water surface. Mixed sex 3rd and 4th instar Aedes aegypti larvae (Yellow fever mosquito) were tested.
Standard storage conditions for nootkatone crystals is 4° C., therefore, the ability of crystals to coat a water surface without first liquifying them was tested. 30 mg of 98% pure nootkatone crystals was weighed and gently dropped onto the surface of 100 mL of water in a 600 mL clean, glass beaker containing 10 mixed sex 3rd and 4th instar Aedes aegypti larvae (3 replicates). Three control replicates of 10 larvae each were placed in identical beakers of 100 mL of water, but without nootkatone. All beakers were provided with finely ground fish food, and they were maintained at room temperature (˜72° F.).

mosquito larvae = test system: mosquito larvae
Method: In this example, concentration titration was performed to determine effective concentrations of nootkatone in nootkatone-containing protective compositions that maintain larvicidal activity, and to determine the effect of surface area on larvicidal activity of nootkatone-containing compositions.
One milliliter of a solution of nootkatone in ethanol was applied directly to 200 milliliters of water containing larvae, using a micropipette. One treatment condition used 3% (v/v) nootkatone in ethanol, a second treatment condition used 1% (v/v) nootkatone in ethanol, and a third treatment used 0.5% (v/v) nootkatone in ethanol, for final concentrations of 30, 10, or 5 mg of nootkatone added per container. One milliliter of pure ethanol was used as a control. Three replicates of 25 larvae were tested per treatment in small- (250 mL flasks (23.8 cm^2 surface area) and medium-sized (600 mL beakers (54 cm^2 surface area)) containers, but only two replicates were made in large 1000 mL beakers (86.6 cm^2 surface area).
Containers were lightly covered with paper towels. Indicated surface areas were calculated based on the inside diameter of the container at the surface level when 200 mL water was added to the container.
Larvae were observed after 24 hours post-introduction to the test containers.
Readings were discontinued if treated mortality reached 100%, or control mortality exceeded 20%.

Aedes aegypti larvae [3] = assay: Liquefied nootkatone dripped onto the water surface as larvicide (Example No. 9, Treatment 1); conditions: thirty one microliters liquefied nootkatone on 100 mL water; 25 larvae; 24 hours
Method: as §1
98% pure nootkatone crystals were held at 38° C. until they liquefied. Previous testing has shown that 1 mL of a 3% solution of nootkatone dissolved in ethanol, when added to 100 mL of water containing mosquito larvae, kills 100% of larvae in less than 24 hours. This experiment tested whether an equivalent amount of liquefied nootkatone alone is able to kill larvae. Thirty one microliters of liquified nootkatone crystals were dripped onto the surface of 100 mL of water in a 600 mL clean, glass beaker containing 25 mixed sex 3rd and 4th instar Aedes aegypti larvae.

[4] = 30 mg nootkatone crystals, at 27 hours

Question: `C=C(C)[C@@H]1CCC2=CC(=O)C[C@@H](C)[C@]2(C)C1` [Nootkatone, nootkatone] was tested. Which larvae mortality rates ([1]; 0.01% nootkatone (v/v), twenty-four hours of exposure, FIG. 8) did it give?
Answer: over 80%

Question: And the “killing at 24 hours” value ([1]; 0.01% nootkatone, larvae added 3 days after water treatment, FIG. 8)?
Answer: 98%

Question: What about the “killing at 24 hours” value ([1]; 0.01% nootkatone, larvae added 7 days after water treatment, FIG. 8) of the same compound?
Answer: 81%

Question: And the larval mortality ([1]; 0.01% nootkatone, scored 48 hours after addition of larvae, 3-7 days after water treatment, FIG. 9)?
Answer: 100%

Question: And the nootkatone killing duration ([1]; 0.03% concentration)?
Answer: at least two weeks

Question: And the “larvae killed within 24 hours” value ([1]; 0.03% nootkatone, beakers held two weeks before larvae, volume restored to 100 mL, FIG. 10)?
Answer: 100%

Question: What about the larvae mortality rates ([1]; 0.03% nootkatone, forty-eight hours of exposure, FIG. 9) of the same compound?
Answer: 100%

Question: And the “larvae killed within 24 hours” value ([1]; 0.03% nootkatone, larvae added 3-7 days after water treatment, FIG. 8)?
Answer: 100%

Question: And the Alive (Aedes aegypti larvae [2]; 1 hr)?
Answer: 100%

Question: And the Dead (Aedes aegypti larvae [2]; 1 hr)?
Answer: 0%

Question: What about the KD (Aedes aegypti larvae [2]; 1 hr) of the same compound?
Answer: 0%

Question: What about the Alive (Aedes aegypti larvae [2]; 27 hr) of the same compound?
Answer: 53%

Question: What about the Dead (Aedes aegypti larvae [2]; 27 hr) of the same compound?
Answer: 7%

Question: And the KD (Aedes aegypti larvae [2]; 27 hr)?
Answer: 40%

Question: What about the Alive (Aedes aegypti larvae [2]; 54 hr) of the same compound?
Answer: 3%

Question: What about the Dead (Aedes aegypti larvae [2]; 54 hr) of the same compound?
Answer: 70%

Question: And the KD (Aedes aegypti larvae [2]; 54 hr)?
Answer: 27%

Question: And the Alive (Aedes aegypti larvae [2]; 77.5 hr)?
Answer: 0%

Question: And the Dead (Aedes aegypti larvae [2]; 77.5 hr)?
Answer: 97%

Question: And the KD (Aedes aegypti larvae [2]; 77.5 hr)?
Answer: 3%

Question: And the killing (Aedes aegypti larvae [2]; 30 mg nootkatone crystals, after more than 3 days)?
Answer: below 100%

Question: What about the “larvae alive (unaffected plus affected)” value (Aedes aegypti larvae [2]; [4]) of the same compound?
Answer: 93%

Question: And the “larvae that appeared to be unaffected” value (Aedes aegypti larvae [2]; [4])?
Answer: ~50%

Question: What about the larval mortality (mosquito larvae; 5 mg nootkatone in 200 mL water, 250 mL flasks, 23.8 cm^2, 24 hours) of the same compound?
Answer: 68%

Question: And the larvae killed (mosquito larvae; 5 mg nootkatone in 200 mL water, largest containers, 86.6 cm^2, 24 hours)?
Answer: did not kill

Question: And the larval mortality (mosquito larvae; 5 mg nootkatone in 200 mL water, medium sized containers, 54 cm^2, 24 hours)?
Answer: 16%

Question: What about the “larvae killed in 24 hours” value (mosquito larvae; 10 mg nootkatone in 200 mL water, flasks with smallest surface area 23.8 cm^2 (about 0.42 mg/cm^2)) of the same compound?
Answer: killed all larvae

Question: And the “larvae killed in 24 hours” value (mosquito larvae; 30 mg nootkatone in 200 mL water, any container size (23.8, 54, 86.6 cm^2))?
Answer: kill all larvae

Question: And the “surface concentration at which nootkatone exhibits larvicidal properties” value (mosquito larvae; 24 hours, water surface)?
Answer: at least 0.09 mg/cm^2

Question: And the “kill rates for mosquito larvae compared with nootkatone dissolved in ethanol” value (Aedes aegypti larvae [3])?
Answer: not as high as previous testing
